Test results reported in ChEMBL document CHEMBL5143613, “Discovery of 6,7-dihydro-5H-pyrrolo[3,4-d] pyrimidine derivatives as a new class of ATR inhibitors” (Bioorg Med Chem Lett, 2022).
Blank lines part the entries; values can stand above or below the molecule they belong to.

How the values were obtained:
[1] = Inhibition of recombinant full-length human ATR M211T mutant using GST-cMyc-p53 as substrate incubated for 40 mins by HTRF assay
A2780 [2] = assay: Anti-tumor activity against human A2780 cells assessed as inhibition of cell viability incubated for 72 hrs by MTT assay; format: functional, cell-based; details: A2780, 72 h
MDA-MB-436 = assay: Anti-tumor activity against human MDA-MB-436 cells assessed as inhibition of cell viability incubated for 72 hrs by MTT assay; format: functional, cell-based; details: MDA-MB-436, 72 h
MDA-MB-468 = assay: Anti-tumor activity against human MDA-MB-468 cells assessed as inhibition of cell viability incubated for 72 hrs by MTT assay; format: functional, cell-based; details: MDA-MB-468, 72 h
LoVo = assay: Anti-tumor activity against human LoVo cells assessed as inhibition of cell viability incubated for 72 hrs by MTT assay; format: functional, cell-based
SW-620 = assay: Anti-tumor activity against human SW-620 cells assessed as inhibition of cell viability incubated for 72 hrs by MTT assay; format: functional, cell-based; details: SW-620, 72 h
Granta-519 = assay: Anti-tumor activity against human Granta-519 cells assessed as inhibition of cell viability incubated for 72 hrs by MTT assay; format: functional, cell-based; details: Granta-519, 72 h
CWR22R = assay: Anti-tumor activity against human 22Rv1 cells assessed as inhibition of cell viability incubated for 72 hrs by MTT assay; format: functional, cell-based; details: 22Rv1, 72 h
NCI-H23 = assay: Anti-tumor activity against human NCI-H23 cells assessed as inhibition of cell viability incubated for 72 hrs by MTT assay; format: functional, cell-based; details: NCI-H23, 72 h
A2780 [3] = assay: Inhibition of colony formation in human A2780 cells by crystal violet staining based analysis; format: functional, cell-based; details: dose 0.03-3 µM, DDE = dose-dependent effect
A2780 [4] = assay: Anti-migration activity against human A2780 cells assessed as inhibition of cell migration at 0.1 to 1 uM by wound healing assay; format: functional, cell-based; details: dose 0.1-1 µM, time 24-48 hrs, TDE = time-dependent effect
A2780 [5] = assay: Anti-migration activity against human A2780 cells assessed as inhibition of cell migration incubated for 24 to 48 hrs by wound healing assay; format: functional, cell-based; details: dose 0.1-1 µM, time 24-48 hrs, DDE = dose-dependent effect
[6] = target: Serine/threonine-protein kinase ATR (Homo sapiens) (UniProt Q13535); assay: Inhibition of ATR in HU-treated human A2780 cells assessed as inhibition of ATR phosphorylation by Western blot assay; format: cell-based; details: dose 0.03-10 µM, DDE = dose-dependent effect
Chain of Serine/threonine-protein kinase ATR (Homo sapiens) (Q13535 whole entry, looked up): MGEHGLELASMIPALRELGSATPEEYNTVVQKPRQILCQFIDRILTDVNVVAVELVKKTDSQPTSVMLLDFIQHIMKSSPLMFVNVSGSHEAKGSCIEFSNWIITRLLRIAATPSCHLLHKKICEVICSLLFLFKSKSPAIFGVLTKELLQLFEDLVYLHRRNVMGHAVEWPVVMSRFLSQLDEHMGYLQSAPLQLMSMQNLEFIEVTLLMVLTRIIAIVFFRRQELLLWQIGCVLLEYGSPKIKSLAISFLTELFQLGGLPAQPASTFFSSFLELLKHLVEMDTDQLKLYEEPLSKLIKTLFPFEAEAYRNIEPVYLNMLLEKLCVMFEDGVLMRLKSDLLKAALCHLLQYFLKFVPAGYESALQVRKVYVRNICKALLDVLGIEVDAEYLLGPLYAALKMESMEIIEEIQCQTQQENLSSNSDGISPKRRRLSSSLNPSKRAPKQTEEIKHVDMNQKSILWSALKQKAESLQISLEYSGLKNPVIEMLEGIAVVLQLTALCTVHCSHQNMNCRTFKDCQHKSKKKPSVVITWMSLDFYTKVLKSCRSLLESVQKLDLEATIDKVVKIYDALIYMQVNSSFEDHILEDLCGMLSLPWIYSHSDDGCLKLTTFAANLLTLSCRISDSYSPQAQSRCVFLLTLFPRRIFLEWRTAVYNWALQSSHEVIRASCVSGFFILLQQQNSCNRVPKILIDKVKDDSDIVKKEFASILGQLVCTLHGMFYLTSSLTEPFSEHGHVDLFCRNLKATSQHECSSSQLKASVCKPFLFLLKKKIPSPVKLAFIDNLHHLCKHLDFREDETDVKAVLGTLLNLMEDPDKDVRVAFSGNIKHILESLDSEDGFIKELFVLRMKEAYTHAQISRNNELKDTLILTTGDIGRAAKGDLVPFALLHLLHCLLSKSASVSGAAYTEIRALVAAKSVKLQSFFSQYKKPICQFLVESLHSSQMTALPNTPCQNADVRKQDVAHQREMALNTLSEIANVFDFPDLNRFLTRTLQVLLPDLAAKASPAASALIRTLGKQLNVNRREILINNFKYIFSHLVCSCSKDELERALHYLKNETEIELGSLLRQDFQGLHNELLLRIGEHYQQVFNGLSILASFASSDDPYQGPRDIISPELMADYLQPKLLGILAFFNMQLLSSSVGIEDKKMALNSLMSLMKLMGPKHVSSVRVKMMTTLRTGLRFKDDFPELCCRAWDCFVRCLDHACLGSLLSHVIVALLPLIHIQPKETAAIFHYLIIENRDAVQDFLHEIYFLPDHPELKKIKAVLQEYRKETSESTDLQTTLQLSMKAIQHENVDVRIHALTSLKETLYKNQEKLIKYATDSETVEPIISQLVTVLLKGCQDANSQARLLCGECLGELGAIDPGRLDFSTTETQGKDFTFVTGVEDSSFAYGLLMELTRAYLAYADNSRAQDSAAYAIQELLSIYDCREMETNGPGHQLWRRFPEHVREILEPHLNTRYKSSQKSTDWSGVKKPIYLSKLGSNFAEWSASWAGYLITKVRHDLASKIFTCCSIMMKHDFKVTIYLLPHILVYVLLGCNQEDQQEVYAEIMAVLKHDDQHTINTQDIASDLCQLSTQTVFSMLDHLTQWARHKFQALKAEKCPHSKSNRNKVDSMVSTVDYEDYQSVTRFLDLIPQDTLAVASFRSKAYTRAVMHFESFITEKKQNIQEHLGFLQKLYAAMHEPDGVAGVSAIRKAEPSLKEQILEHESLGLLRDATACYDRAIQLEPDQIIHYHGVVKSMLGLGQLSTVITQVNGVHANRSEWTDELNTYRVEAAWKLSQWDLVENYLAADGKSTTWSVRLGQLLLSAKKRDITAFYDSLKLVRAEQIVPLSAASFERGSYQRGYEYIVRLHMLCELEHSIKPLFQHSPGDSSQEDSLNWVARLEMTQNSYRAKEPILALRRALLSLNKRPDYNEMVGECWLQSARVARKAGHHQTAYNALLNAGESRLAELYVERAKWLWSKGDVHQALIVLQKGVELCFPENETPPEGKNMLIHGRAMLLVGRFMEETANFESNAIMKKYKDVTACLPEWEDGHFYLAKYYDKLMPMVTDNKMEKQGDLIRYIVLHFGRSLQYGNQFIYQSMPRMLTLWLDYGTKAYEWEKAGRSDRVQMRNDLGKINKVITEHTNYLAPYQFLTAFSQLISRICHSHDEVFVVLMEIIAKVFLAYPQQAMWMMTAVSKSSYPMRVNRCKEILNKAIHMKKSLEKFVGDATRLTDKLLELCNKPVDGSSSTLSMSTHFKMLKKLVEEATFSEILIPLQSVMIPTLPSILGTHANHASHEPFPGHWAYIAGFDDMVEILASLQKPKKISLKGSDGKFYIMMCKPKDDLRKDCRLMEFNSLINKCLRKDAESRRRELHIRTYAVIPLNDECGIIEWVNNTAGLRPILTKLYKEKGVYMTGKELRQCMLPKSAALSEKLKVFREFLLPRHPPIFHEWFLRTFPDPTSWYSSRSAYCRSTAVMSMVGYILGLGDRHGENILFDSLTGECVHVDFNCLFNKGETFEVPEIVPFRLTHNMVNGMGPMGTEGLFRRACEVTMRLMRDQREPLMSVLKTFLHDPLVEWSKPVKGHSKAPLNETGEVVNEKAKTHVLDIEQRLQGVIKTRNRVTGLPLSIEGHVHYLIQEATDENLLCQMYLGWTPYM

[7] = target: Serine/threonine-protein kinase ATR (Homo sapiens) (UniProt Q13535); assay: Inhibition of ATR in HU-treated human A2780 cells assessed as inhibition of Chk1 phosphorylation at Ser345 residue by Western blot assay; format: cell-based; details: dose 0.03-10 µM, DDE = dose-dependent effect
[8] = target: Serine/threonine-protein kinase ATR (Homo sapiens) (UniProt Q13535); assay: Inhibition of ATR in human A2780 cells assessed as induction of DNA damage incubated for 3 days by DAPI staining based immunofluorescence analysis; format: cell-based; details: dose 1-10 µM, time 3.0 day, DDE = dose-dependent effect
[9] = target: Serine/threonine-protein kinase mTOR (Homo sapiens, UniProt P42345); assay: Inhibition of human full length recombinant mTOR in presence of [gamma-33P]ATP incubated for 40 mins by radiometric scintillation counting analysis
FKBP12A/mTOR = FKBP12A/mTOR (Homo sapiens, UniProt P42345+P62942); assay: Inhibition of human full length recombinant mTOR/FKBP12 in presence of [gamma-33P]ATP incubated for 40 mins by radiometric scintillation counting analysis; format: protein-complex assay
Chain of FKBP12A/mTOR (P62942 2-108 limits assumed, other chains not shown): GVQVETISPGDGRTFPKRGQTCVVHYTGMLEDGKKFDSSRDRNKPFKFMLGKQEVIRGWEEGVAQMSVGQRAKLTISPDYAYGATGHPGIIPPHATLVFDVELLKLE

[10] = target: PI3-kinase p110-delta/p85-alpha (Homo sapiens, UniProt O00329); assay: Inhibition of recombinant human full length PI3K p110delta/p85a using phosphatidylinositol-4, 5-bisphosphate as substrate incubated for 40 mins in presence of [gamma33P]ATP by radiometric scintillation counting analysis; format: protein-complex assay
[11] = target: Phosphatidylinositol 4-phosphate 3-kinase C2 domain-containing subunit alpha (Homo sapiens, UniProt O00443); assay: Inhibition of human PI3K-C2alpha (299 to ens residues) using phosphatidylinositol-4, 5-bisphosphate as substrate incubated for 40 mins by HTRF assay
Chain of Phosphatidylinositol 4-phosphate 3-kinase C2 domain-containing subunit alpha (O00443 whole entry, the tested form may be a part): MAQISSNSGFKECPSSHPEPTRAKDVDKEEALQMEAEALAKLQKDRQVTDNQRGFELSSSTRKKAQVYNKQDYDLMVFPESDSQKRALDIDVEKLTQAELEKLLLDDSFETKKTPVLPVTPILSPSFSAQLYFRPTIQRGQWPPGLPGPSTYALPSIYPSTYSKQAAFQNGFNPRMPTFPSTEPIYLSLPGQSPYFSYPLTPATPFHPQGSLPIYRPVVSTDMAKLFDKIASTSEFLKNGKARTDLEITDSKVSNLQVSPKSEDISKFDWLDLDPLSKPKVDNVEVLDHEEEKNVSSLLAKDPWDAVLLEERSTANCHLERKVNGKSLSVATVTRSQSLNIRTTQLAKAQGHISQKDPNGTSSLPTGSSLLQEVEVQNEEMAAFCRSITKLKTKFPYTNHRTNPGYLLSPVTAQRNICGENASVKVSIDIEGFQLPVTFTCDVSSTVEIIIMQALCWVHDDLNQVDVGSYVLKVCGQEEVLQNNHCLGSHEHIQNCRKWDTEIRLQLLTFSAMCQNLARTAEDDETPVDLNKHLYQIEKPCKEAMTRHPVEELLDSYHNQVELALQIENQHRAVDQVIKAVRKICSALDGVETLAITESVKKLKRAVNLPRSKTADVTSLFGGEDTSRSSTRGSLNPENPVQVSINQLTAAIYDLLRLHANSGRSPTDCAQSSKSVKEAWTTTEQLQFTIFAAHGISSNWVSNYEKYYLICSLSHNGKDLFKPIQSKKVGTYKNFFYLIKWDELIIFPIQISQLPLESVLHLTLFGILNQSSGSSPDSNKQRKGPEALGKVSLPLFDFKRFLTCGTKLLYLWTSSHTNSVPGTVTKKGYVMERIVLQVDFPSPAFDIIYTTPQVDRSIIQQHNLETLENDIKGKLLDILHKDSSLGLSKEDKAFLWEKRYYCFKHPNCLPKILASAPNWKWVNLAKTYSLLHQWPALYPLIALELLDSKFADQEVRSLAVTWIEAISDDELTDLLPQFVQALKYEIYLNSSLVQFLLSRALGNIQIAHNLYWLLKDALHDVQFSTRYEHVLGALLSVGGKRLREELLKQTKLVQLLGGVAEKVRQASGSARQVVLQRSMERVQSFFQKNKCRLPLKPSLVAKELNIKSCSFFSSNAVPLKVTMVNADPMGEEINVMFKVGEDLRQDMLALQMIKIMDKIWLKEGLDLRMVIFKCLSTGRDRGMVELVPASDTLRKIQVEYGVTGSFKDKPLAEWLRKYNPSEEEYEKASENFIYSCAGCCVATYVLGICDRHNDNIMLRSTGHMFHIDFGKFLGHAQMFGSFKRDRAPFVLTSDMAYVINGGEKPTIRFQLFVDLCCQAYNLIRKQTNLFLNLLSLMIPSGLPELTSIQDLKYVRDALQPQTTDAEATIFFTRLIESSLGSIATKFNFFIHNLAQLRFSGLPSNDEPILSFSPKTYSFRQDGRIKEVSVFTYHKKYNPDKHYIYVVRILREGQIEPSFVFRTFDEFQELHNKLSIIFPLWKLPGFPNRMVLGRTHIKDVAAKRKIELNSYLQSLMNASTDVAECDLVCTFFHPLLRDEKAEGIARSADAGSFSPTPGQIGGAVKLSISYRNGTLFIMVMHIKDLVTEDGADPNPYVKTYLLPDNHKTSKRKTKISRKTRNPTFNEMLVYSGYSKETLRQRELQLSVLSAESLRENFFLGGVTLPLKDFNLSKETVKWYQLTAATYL

[12] = target: Serine/threonine-protein kinase B-raf (Homo sapiens, UniProt P15056); assay: Inhibition of human recombinant B-Raf (416 to end residues) using myelin basic protein as substrate in presence of [gamma-33P]ATP incubated for 40 mins by radiometric scintillation counting analysis

- IC50 [1]: 0.01 µM
SMILES: C[C@@H]1COCCN1c1nc(-c2c[nH]c3ccccc23)nc2c1CN(C(=O)C(C)(C)CCl)C2

- IC50 [1]: > 10 µM
SMILES: C[C@@H]1CN(c2nc(-c3c[nH]c4ccccc34)nc3c2CN(S(=O)(=O)C2CC2)C3)C[C@H](C)O1

- IC50 [1]: 0.02 µM
SMILES: C[C@@H]1COCCN1c1nc(-c2c[nH]c3ccccc23)nc2c1CN(S(=O)(=O)C1CCCCC1)C2

- IC50 [1]: 0.011 µM
SMILES: C[C@@H]1COCCN1c1nc(-c2c[nH]c3ccccc23)nc2c1CN(C(=O)[C@H]1CCCO1)C2

- IC50 [1]: 0.891 µM
SMILES: O=S(=O)(C1CC1)N1Cc2nc(-c3c[nH]c4ccccc34)nc(N3CCOCC3)c2C1

- IC50 [1]: 0.053 µM
SMILES: C[C@@H]1COCCN1c1nc(-c2cccc3[nH]ccc23)nc2c1CN(S(=O)(=O)C1CC1)C2

- IC50 [1]: 0.006 µM
- IC50 (A2780 [2]): 1.19 µM
- IC50 (MDA-MB-436): 1.29 µM
- IC50 (MDA-MB-468): 1.82 µM
- IC50 (LoVo): 2.63 µM
- IC50 (SW-620): 3.96 µM
- IC50 (NCI-H23): 3.35 µM
SMILES: C[C@@H]1COCCN1c1nc(-c2c[nH]c3ccccc23)nc2c1CN(C(=O)C1CC1)C2
- IC50 (Granta-519): 1.63 µM
- IC50 (CWR22R): 1.45 µM

- IC50 [1]: 0.026 µM
SMILES: CCC(C)C(=O)N1Cc2nc(-c3c[nH]c4ccccc34)nc(N3CCOC[C@H]3C)c2C1 (some centres undefined)

- IC50 [1]: 10 µM
SMILES: O=S(=O)(C1CC1)N1Cc2nc(-c3c[nH]c4ccccc34)nc(NC3COC3)c2C1

- IC50 [1]: 0.007 µM
- IC50 (A2780 [2]): 0.67 µM
- IC50 (MDA-MB-436): 0.95 µM
- IC50 (MDA-MB-468): 1.42 µM
- IC50 (LoVo): 0.84 µM
- IC50 (SW-620): 2.15 µM
- IC50 (NCI-H23): 2.11 µM
- inhibition [6]: Dde
- inhibition [7]: Dde
- IC50 [9]: 0.136 µM
- IC50 (FKBP12A/mTOR): 0.125 µM
- IC50 [10]: 2.15 µM
- IC50 [11]: 2.72 µM
- IC50 [12]: 9.44 µM
SMILES: CC(C)S(=O)(=O)N1Cc2nc(-c3c[nH]c4ccccc34)nc(N3CCOC[C@H]3C)c2C1
- IC50 (Granta-519): 1.02 µM
- IC50 (CWR22R): 1.34 µM
- inhibition (A2780 [3]): Dde
- Activity (A2780 [4]): Tde
- Activity (A2780 [5]): Dde
- inhibition [8]: Dde

- IC50 [1]: 0.025 µM
SMILES: C[C@@H]1COCCN1c1nc(-c2c[nH]c3ccccc23)nc2c1CN(C(=O)C(C)(C)C)C2

Continued, molecule first:

SMILES: C[C@@H]1COCCN1c1nc(-c2c[nH]c3ccccc23)nc2c1CN(C(=O)C(C)(C)C(F)(F)F)C2
- IC50 [1]: 0.038 µM

SMILES: O=S(=O)(C1CC1)N1Cc2nc(-c3c[nH]c4ccccc34)nc(N3CC4CCC(C3)O4)c2C1
- IC50 [1]: 0.544 µM

SMILES: C[C@@H]1COCCN1c1nc(-c2cnc3[nH]ccc3c2)nc2c1CN(S(=O)(=O)C1CC1)C2
- IC50 [1]: 2.71 µM

SMILES: O=S(=O)(C1CC1)N1Cc2nc(-c3c[nH]c4ccccc34)nc(N3CC4CC3CO4)c2C1 (centres undefined)
- IC50 [1]: > 10 µM

SMILES: O=S(=O)(C1CC1)N1Cc2nc(-c3c[nH]c4ccccc34)nc(N3C4CCC3COC4)c2C1
- IC50 [1]: 1.39 µM

SMILES: C[C@@H]1COCCN1c1nc(-c2c[nH]c3ncccc23)nc2c1CN(S(=O)(=O)C1CC1)C2
- IC50 [1]: 2.47 µM

SMILES: C[C@H](CO)Nc1nc(-c2c[nH]c3ccccc23)nc2c1CN(S(=O)(=O)C1CC1)C2
- IC50 [1]: 8.36 µM

SMILES: C[C@@H]1COCCN1c1nc(-c2c[nH]c3ccccc23)nc2c1CN(S(=O)(=O)N(C)C)C2
- IC50 [1]: 0.018 µM

SMILES: C[C@@H]1COCCN1c1nc(-c2c[nH]c3ccccc23)nc2c1CN(S(=O)(=O)C1CC1)C2
- IC50 [1]: 0.004 µM
- IC50 (A2780 [2]): 1.35 µM
- IC50 (MDA-MB-436): 1.88 µM
- IC50 (MDA-MB-468): 1.74 µM
- IC50 (LoVo): 2.11 µM
- IC50 (SW-620): 3.84 µM
- IC50 (Granta-519): 1.86 µM
- IC50 (CWR22R): 2.48 µM
- IC50 (NCI-H23): 3.48 µM

SMILES: O=S(=O)(C1CC1)N1Cc2nc(-c3c[nH]c4ccccc34)nc(N3C[C@H]4COC[C@H]4C3)c2C1
- IC50 [1]: > 10 µM

SMILES: C[C@@H]1COCCN1c1nc(-c2c[nH]c3ccccc23)nc2c1CN(C(=O)C1CCNCC1)C2
- IC50 [1]: 0.601 µM

SMILES: C[C@H]1COCCN1c1nc(-c2c[nH]c3ccccc23)nc2c1CN(S(=O)(=O)C1CC1)C2
- IC50 [1]: 4.95 µM

SMILES: C[C@@H]1COCCN1c1nc(-c2cc[nH]n2)nc2c1CN(S(=O)(=O)C1CC1)C2
- IC50 [1]: > 10 µM
